Results reported in patent US11813306B2, “Cyclic tetramer compounds as proprotein convertase subtilisin/kexin type 9 (PCSK9) inhibitors for the treatment of metabolic disorders” (NOVARTIS AG, priority 2018, dated 2023).

Molecular target: human PCSK9 (Homo sapiens, UniProt Q8NBP7)
Assay: PCSK9 ligand binding assay (TR-FRET): interference with binding of human PCSK9 to human LDLR
Settings: for IC50: Human PCSK9 Alexa Fluor 647 / Human LDLR extracellular domain-Europium Kryptate; for Max % inhibition: efficacy (Amax), 100% = 1 uM unlabeled human PCSK9, 0% = DMSO
In short: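 Read-out was TR-FRET ratio (665 nm over 615 nm, 330 nm excitation) between Alexa Fluor 647-human PCSK9 (16 nM added) and Europium Kryptate-human LDLR ectodomain (4 nM added). Compound and PCSK9 were mixed 30 min before LDLR, then incubated 2 h. Inhibition was normalised to DMSO and unlabelled-PCSK9 controls, giving IC50 and Amax.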

Sequence of human PCSK9 (Q8NBP7 153-692): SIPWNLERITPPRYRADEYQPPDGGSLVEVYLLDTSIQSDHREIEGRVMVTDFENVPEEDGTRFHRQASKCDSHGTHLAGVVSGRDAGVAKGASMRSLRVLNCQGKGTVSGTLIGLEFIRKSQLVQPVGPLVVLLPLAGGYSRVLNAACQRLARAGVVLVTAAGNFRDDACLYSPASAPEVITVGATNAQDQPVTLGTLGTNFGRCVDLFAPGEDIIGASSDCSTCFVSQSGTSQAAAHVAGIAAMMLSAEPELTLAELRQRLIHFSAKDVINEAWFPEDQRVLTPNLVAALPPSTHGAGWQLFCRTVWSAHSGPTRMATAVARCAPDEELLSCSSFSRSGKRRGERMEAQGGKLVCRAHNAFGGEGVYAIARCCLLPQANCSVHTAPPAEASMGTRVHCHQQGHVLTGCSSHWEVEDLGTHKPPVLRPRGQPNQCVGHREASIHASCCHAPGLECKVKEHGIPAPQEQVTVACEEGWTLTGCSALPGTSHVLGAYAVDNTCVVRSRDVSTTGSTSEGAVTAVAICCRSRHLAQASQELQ
Sequence of human PCSK9 (Q8NBP7 31-152 partner limits assumed): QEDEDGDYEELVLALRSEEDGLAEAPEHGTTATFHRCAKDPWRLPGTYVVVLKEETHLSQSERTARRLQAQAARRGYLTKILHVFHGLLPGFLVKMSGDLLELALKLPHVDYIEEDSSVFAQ

SMILES | IC50 | Max % inhibition
C[C@H]1C(=O)N[C@@H](CO)C(=O)N[C@@]2(Cc3ccc(Cl)cc3)CCCN(C2)C(=O)[C@H](Cc2ccc(F)c(F)c2F)CC(=O)N1Cc1c(F)cc(Cl)cc1Oc1ccc(-c2cnc(CN(C)C)n2C)cc1 [Compound 48, (3R, 7S, 10S, 13R)-6-(4-chloro-2-(4-(2-((dimethylamino)methyl)-1-methyl-1H-imidazol-5-yl)phenoxy)-6-fluorobenzyl)-13-(4-chlorobenzyl)-10-(hydroxymethyl)-7-methyl-3-(2,3,4-trifluorobenzyl)-1,6,9,12-tetraazabicyclo[11.3.1]heptadecane-2,5,8,11-tetraone] | 0.596 nM | 102.8%
C[C@H]1C(=O)N[C@@H](CO)C(=O)N(C)[C@H](Cc2ccc(Cl)cc2)CN(C)C(=O)[C@H](Cc2ccccc2)CC(=O)N1Cc1ccc(Cl)cc1Oc1cc(F)c(-c2cnc(CN3CCCC3)n2C)c(F)c1.Cl [Compound 106, (2S, 5S, 8R, 12R)-12-benzyl-1-(4-chloro-2-(3,5-difluoro-4-(1-methyl-2-(pyrrolidin-1-ylmethyl)-1H-imidazol-5-yl)phenoxy)benzyl)-8-(4-chlorobenzyl)-5-(hydroxymethyl)-2,7,10-trimethyl-1,4,7,10-tetraazacyclotetradecane-3,6,11,14-tetraone] | 8.52 nM | 105.1%
C[C@H]1C(=O)N[C@@H](CO)C(=O)N(C)[C@@]2(Cc3ccc(Cl)cc3)CCCN(C2)C(=O)[C@@H](CC(F)(F)F)CC(=O)N1Cc1c(F)cc(Cl)cc1Oc1ccc(-c2cnc(CN(C)C)n2C)cc1 [Compound 151, (3R, 7S, 10S, 13R)-6-(4-chloro-2-(4-(2-((dimethylamino)methyl)-1-methyl-1H-imidazol-5-yl)phenoxy)-6-fluorobenzyl)-13-(4-chlorobenzyl)-10-(hydroxymethyl)-7,12-dimethyl-3-(2,2,2-trifluoroethyl)-1,6,9,12-tetraazabicyclo[11.3.1]heptadecane-2,5,8,11-tetraone] | 5.69 nM | 107.5%
COC[C@@H]1NC(=O)[C@H](C)N(Cc2c(F)cc(Cl)cc2Oc2ccc(-c3cnc(CNC(C)(C)C)n3C)cc2)C(=O)C[C@@H](CC2CC2)C(=O)N2CCC[C@@](Cc3ccc(Cl)cc3)(C2)NC1=O [Compound 142, (3R, 7S, 10S, 13R)-6-(2-(4-(2-((tert-butylamino)methyl)-1-methyl-1H-imidazol-5-yl)phenoxy)-4-chloro-6-fluorobenzyl)-13-(4-chlorobenzyl)-3-(cyclopropylmethyl)-10-(methoxymethyl)-7-methyl-1,6,9,12-tetraazabicyclo[11.3.1]heptadecane-2,5,8,11-tetraone] | 0.91 nM | 111.1%
COC[C@@H]1NC(=O)[C@H](C)N(Cc2c(F)cc(Cl)cc2Oc2ccc(-c3cnc(CN(C)C4CCC4)n3C)cc2)C(=O)C[C@@H](CC(F)(F)F)C(=O)N2CCC[C@@](Cc3ccc(Cl)cc3)(C2)NC1=O [Compound 160, (3S, 7S, 10S, 13R)-6-(4-chloro-2-(4-(2-((cyclobutyl(methyl)amino)methyl)-1-methyl-1H-imidazol-5-yl)phenoxy)-6-fluorobenzyl)-13-(4-chlorobenzyl)-10-(methoxymethyl)-7-methyl-3-(2,2,2-trifluoroethyl)-1,6,9,12-tetraazabicyclo[11.3.1]heptadecane-2,5,8,11-tetraone] | 1.63 nM | 113.8%
C[C@H]1C(=O)N[C@@H](CO)C(=O)N(C)[C@@]2(Cc3ccc(Cl)cc3)CCCN(C2)C(=O)[C@H](C2CC(F)(F)C2)CC(=O)N1Cc1c(F)cc(Cl)cc1Oc1ccc(-c2cnc(CN(C)C)n2C)cc1 [Compound 164, (3S, 7S, 10S, 13R)-6-(4-chloro-2-(4-(2-((dimethylamino)methyl)-1-methyl-1H-imidazol-5-yl)phenoxy)-6-fluorobenzyl)-13-(4-chlorobenzyl)-3-(3,3-difluorocyclobutyl)-10-(hydroxymethyl)-7,12-dimethyl-1,6,9,12-tetraazabicyclo[11.3.1]heptadecane-2,5,8,11-tetraone] | 0.9 nM | 109.6%
C[C@H](O)[C@@H]1NC(=O)[C@H](C)N(Cc2ccc(Cl)cc2Oc2ccc(-c3cnc(CN(C)C)n3C)cc2)C(=O)C[C@@H](CC(F)(F)F)C(=O)N2CCC[C@@](Cc3ccc(Cl)cc3)(C2)NC1=O [Compound 64, (3S,7S,10S,13R)-6-(4-chloro-2-(4-(2-((dimethylamino)methyl)-1-methyl-1H-imidazol-5-yl)phenoxy)benzyl)-13-(4-chlorobenzyl)-10-((S)-1-hydroxyethyl)-7-methyl-3-(2,2,2-trifluoroethyl)-1,6,9,12-tetraazabicyclo[11.3.1]heptadecane-2,5,8,11-tetraone] | 1.16 nM | 99.7%
C[C@H]1C(=O)N[C@@H](CO)C(=O)N[C@@]2(Cc3ccc(Cl)cc3)CCCN(C2)C(=O)[C@H](CC(F)F)NC(=O)N1Cc1ccc(Cl)cc1Oc1ccc(-c2cnc(CN(C)C)n2C)cc1.Cl [Compound 58, (3S, 7S, 10S, 13R)-6-(4-chloro-2-(4-(2-((dimethylamino)methyl)-1-methyl-1H-imidazol-5-yl)phenoxy)benzyl)-13-(4-chlorobenzyl)-3-(2,2-difluoroethyl)-10-(hydroxymethyl)-7-methyl-1,4,6,9,12-pentaazabicyclo[11.3.1]heptadecane-2,5,8,11-tetraone] | 0.367 nM | 106.6%

The remaining lines, values ahead:

IC50 | Max % inhibition | SMILES
0.568 nM | 112.3% | C[C@H]1C(=O)N[C@@H](CO)C(=O)N[C@@]2(Cc3ccc(Cl)cc3)CCCN(C2)C(=O)[C@H](Cc2c(F)cc(F)cc2F)CC(=O)N1Cc1ccc(Cl)cc1Oc1ccc(-c2cnc(CN(C)C)n2C)cc1 [Compound 46, (3R, 7S, 10S, 13R)-6-(4-chloro-2-(4-(2-((dimethylamino)methyl)-1-methyl-1H-imidazol-5-yl)phenoxy)benzyl)-13-(4-chlorobenzyl)-10-(hydroxymethyl)-7-methyl-3-(2,4,6-trifluorobenzyl)-1,6,9,12-tetraazabicyclo[11.3.1]heptadecane-2,5,8,11-tetraone]
0.549 nM | 104.5% | C[C@H]1C(=O)N[C@@H](CO)C(=O)N(C)[C@@]2(Cc3ccc(Cl)cc3)CCCN(C2)C(=O)[C@H](Cc2ccccn2)CC(=O)N1Cc1ccc(Cl)cc1Oc1ccc(-c2cnc(CN(C)C)n2C)cc1 [Compound 18, (3R,7S,10S,13R)-6-(4-Chloro-2-(4-(2-((dimethylamino)methyl)-1-methyl-1H-imidazol-5-yl)phenoxy)benzyl)-13-(4-chlorobenzyl)-10-(hydroxymethyl)-7,12-dimethyl-3-(pyridin-2-ylmethyl)-1,6,9,12-tetraazabicyclo[11.3.1]heptadecane-2,5,8,11-tetraone]
0.963 nM | 110.7% | C[C@H]1C(=O)N[C@@H](CO)C(=O)N[C@@]2(Cc3ccc(Cl)cc3)CCCN(C2)C(=O)[C@H](Cc2ccc(C(F)(F)F)cc2)CC(=O)N1Cc1ccc(Cl)cc1Oc1ccc(-c2cnc(CN(C)C)n2C)cc1 [Compound 62, (3R, 7S, 10S, 13R)-6-(4-chloro-2-(4-(2-((dimethylamino)methyl)-1-methyl-1H-imidazol-5-yl)phenoxy)benzyl)-13-(4-chlorobenzyl)-10-(hydroxymethyl)-7-methyl-3-(4-(trifluoromethyl)benzyl)-1,6,9,12-tetraazabicyclo[11.3.1]heptadecane-2,5,8,11-tetraone]
0.623 nM | 109.3% | COC[C@@H]1NC(=O)[C@H](C)N(Cc2ccc(Cl)cc2Oc2ccc(-c3cnc(CN4CCC(O)CC4)n3C)cc2)C(=O)C[C@@H](Cc2ccccc2)C(=O)N2CCC[C@@](Cc3ccc(Cl)cc3)(C2)NC1=O.Cl [Compound 61]
0.61 nM | 112.5% | COC[C@@H]1NC(=O)[C@H](C)N(Cc2ccc(Cl)cc2Oc2ccc(-c3cnc(CN(C)C)n3C)nc2)C(=O)C[C@@H](Cc2ccccc2)C(=O)N2CCC[C@@](Cc3ccc(Cl)cc3)(C2)NC1=O [Compound 52, (3R, 7S, 10S, 13R)-3-benzyl-6-(4-chloro-2-((6-(2-((dimethylamino)methyl)-1-methyl-1H-imidazol-5-yl)pyridin-3-yl)oxy)benzyl)-13-(4-chlorobenzyl)-10-(methoxymethyl)-7-methyl-1,6,9,12-tetraazabicyclo[11.3.1]heptadecane-2,5,8,11-tetraone]
0.81 nM | 101.7% | COC[C@@H]1NC(=O)[C@H](C)N(Cc2ccc(Cl)cc2Oc2ccc(-c3cnc(CN4CCN(C)CC4)n3C)cc2)C(=O)C[C@@H](Cc2ccccc2)C(=O)N2CCC[C@@](Cc3ccc(Cl)cc3)(C2)NC1=O.Cl [Compound 76, (3R, 7S, 10S, 13R)-3-benzyl-6-(4-chloro-2-(4-(1-methyl-2-((4-methylpiperazin-1-yl)methyl)-1H-imidazol-5-yl)phenoxy)benzyl)-13-(4-chlorobenzyl)-10-(methoxymethyl)-7-methyl-1,6,9,12-tetraazabicyclo[11.3.1]heptadecane-2,5,8,11-tetraone]
0.837 nM | 100.1% | COC[C@@H]1NC(=O)[C@H](C)N(Cc2ccc(Cl)cc2Oc2ccc(-c3cnc(CN4CC[C@H](N(C)C)C4)n3C)cc2)C(=O)C[C@@H](Cc2ccccc2)C(=O)N2CCC[C@@](Cc3ccc(Cl)cc3)(C2)NC1=O.Cl [Compound 72, (3R, 7S, 10S, 13R)-3-benzyl-6-(4-chloro-2-(4-(2-(((S)-3-(dimethylamino)pyrrolidin-1-yl)methyl)-1-methyl-1H-imidazol-5-yl)phenoxy)benzyl)-13-(4-chlorobenzyl)-10-(methoxymethyl)-7-methyl-1,6,9,12-tetraazabicyclo[11.3.1]heptadecane-2,5,8,11-tetraone]
